Here are results for 2 substances from patent US20230272014A1, “COMPOSITION OF NANOPARTICLES AS CARRIER FOR HPV-DERIVED IMMUNOGENIC FRAGMENTS” (priority 2020, published 2023).

One series concerns DC2.4 cells. Nature of the series: MHC class I cross presentation of OVA257-264 in DC2.4 cells. In kind it is cell-based, murine. Conditions: 6 h incubation, 5 μM, 25-D1.16 antibody, flow cytometry, with or without SiO2—PO3H2. The protocol:
After an incubation time of 6 h, the test substances were removed by washing with phosphate-buffered saline (PBS). In the next step, the cells were incubated with CD16/CD32 antibody in order to block the non-specific binding of the detection antibody to the Fc (Fragment, crystallizable) receptor of the cells. After incubation with 25-D1.16 antibody, the amount of cross-presented OVA257-264 was quantified by flow cytometry. FIG. 16: […] Quantification was carried out by flow cytometry after labeling with 25-D1.16 detection antibody.
In general terms: In flow cytometry, cells or beads pass a laser one at a time.

The test system of another series is influenza A virus PR8/34. In kind it is in vivo, C57BL/6 mice. The conditions noted are these: s.c. 24 hours before intranasal five-fold LD50 influenza A PR8/34.
The nature of series [1]: Poly(I:C) loading capacity of SiO2-Arg nanoparticles (DLS, zeta potential). In kind it is physicochemical. Conditions: SiO2-Arg loaded with poly(I:C) LMW, 0.9% NaCl.

On to “SIINFEKL (Ovalbumin aa 258-265; listed as Gallus gallus) [OVA257-264]”, for which the “OVA257-264 MHC class I presentation” value with DC2.4 cells is recorded as “presented in significant amounts”.

On to “polyinosinic:polycytidylic acid [poly(I:C)]”, for which the “improvement compared to the placebo group” value in the series on influenza A virus PR8/34 was “does not show any statistically significant improvement”. In series [1], the PDI came out at 0.557, the Peak was found to be 12.69 nm and the Z ave stood at 33.83 nm.
